Source: the supplement of paper PMC10307832

Experiments:
Test in all cases: relative viability (nuclei count vs DMSO), 5 days (fraction); higher = more cells survive
NCI-H1648 = system: NCI-H1648
In short: (§1)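 Lung cancer cell lines in 1536-well plates were dosed by pin tool the day after seeding, either with one drug alone or with a fixed anchor-drug dose plus five library-drug doses (not always all listed) in √10 steps. After 5 days, cells were fixed and their nuclei stained in one step (final 0.05% Triton X-100, 1% formaldehyde, 1 ug/ml Hoechst), then counted on 4× images. Relative viability is the nuclei count in treated wells divided by that in vehicle wells. Values are medians of duplicate plates.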

NCI-H1703 = system: NCI-H1703
In short: as §1

CAL-12T = system: CAL-12T
In short: as §1

NCI-H1755 = system: NCI-H1755
In short: as §1

LK-2 = system: LK-2
In short: as §1

A-427 = system: A-427
In short: as §1

NCI-H1651 = system: NCI-H1651
In short: as §1

SMILES: Cc1cn(-c2cc(NC(=O)c3ccc(C)c(Nc4nccc(-c5cccnc5)n4)c3)cc(C(F)(F)F)c2)cn1 [Nilotinib] + NC(=O)Nc1cc(-c2cccc(F)c2)sc1C(=O)N[C@H]1CCCNC1 [AZD7762] (partner 0.2 µM)
- relative viability (NCI-H1648; first compound 0.001 µM): 0.561
- relative viability (NCI-H1648; first compound 0.003162 µM): 0.664
- relative viability (NCI-H1648; first compound 0.01 µM): 0.663
- relative viability (NCI-H1648; first compound 0.03162 µM): 0.569
- relative viability (NCI-H1648; first compound 0.1 µM): 0.65
- relative viability (NCI-H1703; first compound 0.001 µM): 0.117
- relative viability (NCI-H1703; first compound 0.003162 µM): 0.121
- relative viability (NCI-H1703; first compound 0.01 µM): 0.11
- relative viability (NCI-H1703; first compound 0.03162 µM): 0.121
- relative viability (NCI-H1703; first compound 0.1 µM): 0.117
- relative viability (CAL-12T; first compound 0.001 µM): 0.607
- relative viability (CAL-12T; first compound 0.003162 µM): 0.423
- relative viability (CAL-12T; first compound 0.01 µM): 0.631
- relative viability (CAL-12T; first compound 0.03162 µM): 0.539
- relative viability (CAL-12T; first compound 0.1 µM): 0.605
- relative viability (NCI-H1755; first compound 0.001 µM): 0.412
- relative viability (NCI-H1755; first compound 0.003162 µM): 0.499
- relative viability (NCI-H1755; first compound 0.01 µM): 0.399
- relative viability (NCI-H1755; first compound 0.03162 µM): 0.352
- relative viability (NCI-H1755; first compound 0.1 µM): 0.4
- relative viability (LK-2; first compound 0.001 µM): 0.349
- relative viability (LK-2; first compound 0.003162 µM): 0.447
- relative viability (LK-2; first compound 0.01 µM): 0.47
- relative viability (LK-2; first compound 0.03162 µM): 0.382
- relative viability (LK-2; first compound 0.1 µM): 0.514
- relative viability (A-427; first compound 0.001 µM): 0.716
- relative viability (A-427; first compound 0.003162 µM): 0.501
- relative viability (A-427; first compound 0.01 µM): 0.681
- relative viability (A-427; first compound 0.03162 µM): 0.535
- relative viability (A-427; first compound 0.1 µM): 0.338
- relative viability (NCI-H1651; first compound 0.001 µM): 0.444
- relative viability (NCI-H1651; first compound 0.003162 µM): 0.394
- relative viability (NCI-H1651; first compound 0.01 µM): 0.572
- relative viability (NCI-H1651; first compound 0.03162 µM): 0.401
- relative viability (NCI-H1651; first compound 0.1 µM): 0.239
